# Measured values as given in patent publication US7005449B2, “Tolterodine salts” (Pharmacia & Upjohn Company, priority 2002, dated 2006).
# Legend:
# [1] = Rotating disk dissolution of tolterodine salts; assay type: physicochemical; settings: 25° C.; for Rotating disk dissolution rate (RDDR): pH 6, 0.05 M phosphate buffer
# Procedure: Data was collected on the salts. Rotating disk dissolution data was collected at pH 6 in a 0.05 M phosphate buffer at 25° C. on a fiber optic apparatus.
# [2] = Rotating disk dissolution of tolterodine salts; assay type: physicochemical; settings: extrapolated from carbon chain length trend
# [3] = traditional tablet administration; cited from earlier work
# [4] = Equilibrium solubility of tolterodine salts (shaking excess salt 24 hours, RP-HPLC)
# Procedure: The resultant solution is centrifuged at 5000 rpm for 30 min in a temperature-controlled centrifuge. The supernatant was diluted and analysed for tolterodine by reversed phase high performance liquid chromatography (RP-HPLC).
molecule,measurement,setting,value
CCCCCCCCCC(=O)O.Cc1ccc(O)c([C@H](CCN(C(C)C)C(C)C)c2ccccc2)c1 [caprate],Rotating disk dissolution rate (RDDR),[1],0.75 μg cm^−2s^−1
CCCCCCCCCCCCCC(=O)O.Cc1ccc(O)c(C(CCN(C(C)C)C(C)C)c2ccccc2)c1 (centres unmarked) [myristic (14 C)],predicted dissolution rate,[2],very low
CCCCCCCCCCCCCCCC(=O)O.Cc1ccc(O)c(C(CCN(C(C)C)C(C)C)c2ccccc2)c1 (centres unmarked) [palmitic (16 C)],predicted dissolution rate,[2],very low
"Cc1ccc(O)c(C(CCN(C(C)C)C(C)C)c2ccccc2)c1.O=C(O)c1cc2ccccc2c(Cc2c(O)c(C(=O)O)cc3ccccc23)c1O [pamoate, tolterodine pamoate]",Rotating disk dissolution rate (RDDR),[1],<0.3 μg cm^−2s^−1
same,Rotating disk dissolution rate (RDDR),[1]; listed as pamoate salt,less than the detection limit of the instrument
"Cc1ccc(O)c([C@H](CCN(C(C)C)C(C)C)c2ccccc2)c1.O=C(O)C(O)C(O)C(=O)O [tartrate, tolterodine tartrate, reference compound]",rotating disk dissolution rate,[1]; pH 6 media,14 μg cm^−2sec^−1
same,Rotating disk dissolution rate (RDDR),[1],14.0 μg cm^−2s^−1
"Cc1ccc(O)c([C@H](CCN(C(C)C)C(C)C)c2ccccc2)c1 [tolterodine, 2-[(1R)-3-(diisopropylamino)-1-phenylpropyl]-4-methylphenol]",time of peak plasma concentration,[3],1 to 2 h
benzoate,Rotating disk dissolution rate (RDDR),[1],2.1 μg cm^−2s^−1
fumarate,Rotating disk dissolution rate (RDDR),[1],2.6 μg cm^−2s^−1
laurate,Rotating disk dissolution rate (RDDR),[1],0.38 μg cm^−2s^−1
maleate,Rotating disk dissolution rate (RDDR),[1],4.1 μg cm^−2s^−1
same,Equilibrium solubility in buffer,"[4]; 0.1 M phosphate buffer pH 7.4, 24 hours, room temperature",4700 µg/mL
same,final pH in buffer,[4]; final pH of the buffer solubility sample,6.9
same,final pH in water,[4]; final pH of the water solubility sample,5.0
same,Equilibrium solubility in water,"[4]; water, 24 hours, room temperature",1500 µg/mL
tolterodine heptanoate,Rotating disk dissolution rate (RDDR),[1],2.7 μg cm^−2s^−1
